Assay results: US4757151A, “2-substituted-[2-substituted-amino]-N-arylalkyl-3-[indol-3-yl]” (Warner-Lambert Company, priority 1986, dated 1988)

Tests used:
[1] = percent repression of food intake (appetite suppression) in laboratory rats trained to a six hour feeding period; assay type: in vivo, adult male Wistar rats
Source text: In this screen, adult male Wistar rats weighing between 250-400 g were housed individually and trained to consume their daily intake of food within a six hour period. Food was then withdrawn for the remaining eighteen hour period of each day. Drinking water was available at all times, and the animals were maintained on a twelve hour light/twelve hour dark cycle. This training regimen was maintained for a seven-day period. Powdered, rather than pelletized, food was used to minimize spillage and to facilitate measurement of food intake.
On each test day, a group of twelve rats was used, six receiving a single dose of test compound and six serving as a control group. Immediately after dosing, the rats were allowed access to food. Food intake was then monitored over the next six-hour period. The food hoppers were weighed at intervals of 30 minutes, and at 1, 2, 3, 4, 5, and 6 hours after administration of the test compound. The percent repression of food intake of laboratory rats under these conditions for the prior art octapeptide, CCK26-33, and for several compounds of the present invention appear in Table 2.

CCK receptor = target: T1, CCK receptor (Mus musculus, UniProt P56481); assay: displacement of tritiated pentagastrin binding to mouse cerebral cortical membranes (CCK receptor binding screening test); set-up: species or system male CFLP mice; conditions: tritiated pentagastrin (2 nM) displacement, Cheng-Prusoff
T1 construct: the cerebral cortices from male CFLP mice weighing between 30-40 g were dissected on ice, weighed and homogenized; from tissue; host or cells: cerebral cortex membranes of male CFLP mice
T1 sequence (P56481 1-453): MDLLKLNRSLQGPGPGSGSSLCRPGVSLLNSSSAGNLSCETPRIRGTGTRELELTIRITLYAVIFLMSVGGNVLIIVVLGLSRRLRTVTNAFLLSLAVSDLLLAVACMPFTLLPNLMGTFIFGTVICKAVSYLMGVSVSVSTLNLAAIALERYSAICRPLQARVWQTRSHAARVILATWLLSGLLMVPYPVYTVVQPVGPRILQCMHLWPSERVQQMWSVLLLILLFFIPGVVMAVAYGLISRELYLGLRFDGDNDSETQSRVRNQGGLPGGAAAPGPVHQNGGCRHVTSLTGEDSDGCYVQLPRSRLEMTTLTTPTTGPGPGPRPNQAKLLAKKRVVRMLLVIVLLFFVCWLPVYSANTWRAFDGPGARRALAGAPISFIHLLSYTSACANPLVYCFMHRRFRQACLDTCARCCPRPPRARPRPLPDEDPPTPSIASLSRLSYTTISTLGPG
Description: The biological activities of compounds of this invention were evaluated employing an initial screening test which rapidly and accurately measured the binding of the tested compound to known CCK receptor cites. […] (See Hays et al., Neuropeptides, 1: 53-62 (1980); and Sauter et al., Science, 208: 1155-1156 (1980).
In the screening test, the cerebral cortices from male CFLP mice weighing between 30-40 g were dissected on ice, weighed and homogenized in 10 volumes of 50 mM Tris-HCl buffer (pH 7.4 at 0°-4° C.). The resulting suspension was centrifuged, the supernate was discarded, and the pellet was washed by resuspension in Tris-HCl buffer followed by recentrifugation.
The final pellet was resuspended in 10 volumes of 10 mM Hepes buffer (pH 7.2 at 23° C.) containing 130 mM NaCl, 4.7 mM KCl, 1 mM EDTA, 5 mg/ml bovine albumin, and bacitracin (0.25 mg/ml). […]
Following incubation, radioactivity bound to membranes was separated from that free in solution by rapid filtration through Whatman GF/B filters and washed three times with 4-ml portions of ice-cold Tris-HCl buffer. Filters from samples incubated with tritiated pentagastrin were placed in polyethylene vials with 8 ml of scintillation cocktail, and the radioactivity was estimated by scintillation spectrometry (efficiency 47-52%). […]
Saturation curves for specific tritiated pentagastrin binding to mouse cortical membranes were analyzed by statisitcal methods to provide estimates for the maximum number of binding sites (Bmax) and the equilibrium dissociation constant (Kd).
In the displacement experiements, inhibition curves were analyzed by logit-log plots to provide estimates of the IC50 and nH (apparent Hill coefficient) values. […]
The inhibition constant, Ki, of the test compound was then calculated according to the Cheng-Prusoff equation: [formula] where [L] is the molar concentration of radiolabel and Kd is the equilibrium dissociation constant.

Ki (CCK receptor)	Compound	Percent Repression of Food Intake After 0.5 Hours ([1]; I.P. 300 mg/kg)	Percent Repression of Food Intake After 1.0 Hours ([1]; I.P. 300 mg/kg)	Percent Repression of Food Intake After 3.0 Hours ([1]; I.P. 300 mg/kg)	Percent Repression of Food Intake After 6.0 Hours ([1]; I.P. 300 mg/kg)	Percent Repression of Food Intake After 0.5 Hours ([1]; I.P. 100 mg/kg)	Percent Repression of Food Intake After 1.0 Hours ([1]; I.P. 100 mg/kg)	Percent Repression of Food Intake After 3.0 Hours ([1]; I.P. 100 mg/kg)	Percent Repression of Food Intake After 6.0 Hours ([1]; I.P. 100 mg/kg)	further results
6.8 µM	CCC(C)(C)OC(=O)NC(C)(Cc1c[nH]c2ccccc12)C(=O)NC(CO)Cc1ccccc1 (stereo not shown) [Example 7, [2-[[1-(Hydroxymethyl)-2-phenylethyl]-amino]-1-(1H-indol-3-ylmethyl)-1-methyl-2-oxoethyl]-carbamic acid, 1,1-dimethylpropyl ester]	64%	45%	23%	11%	–	–	–	–	–
6 µM	CC(C)(C)OC(=O)N[C@@](C)(Cc1c[nH]c2ccccc12)C(=O)N[C@@H](Cc1ccccc1)C(N)=O (single isomer, unassigned) [Example 2, N-[(1,1-Dimethylethoxy)carbonyl]-α-methyltryptophyl-L-phenylalaninamide]	–	–	–	–	66%	54%	1%	0%	Percent Repression of Food Intake After 0.5 Hours ([1]; I.P. 4 mg/kg): 24%; Percent Repression of Food Intake After 1.0 Hours ([1]; I.P. 4 mg/kg): 13%; Percent Repression of Food Intake After 3.0 Hours ([1]; I.P. 4 mg/kg): 19%; Percent Repression of Food Intake After 6.0 Hours ([1]; I.P. 4 mg/kg): 14%
6.5 µM	CCC(C)(C)OC(=O)NC(C)(Cc1c[nH]c2ccccc12)C(=O)NCCc1ccccc1 (stereo not shown) [Example 6, [1-(1H-Indol-3-ylmethyl)-1-methyl-2-oxo-2-[(2-phenylethyl)amino]ethyl]-carbamic acid, 1,1-dimethylpropyl ester]	–	–	–	–	8%	22%	36%	13%	–

The next lines start with the compound.

Compound	Ki (CCK receptor)	Percent Repression of Food Intake After 0.5 Hours ([1]; I.P. 300 mg/kg)	Percent Repression of Food Intake After 1.0 Hours ([1]; I.P. 300 mg/kg)	Percent Repression of Food Intake After 3.0 Hours ([1]; I.P. 300 mg/kg)	Percent Repression of Food Intake After 6.0 Hours ([1]; I.P. 300 mg/kg)	Percent Repression of Food Intake After 0.5 Hours ([1]; I.P. 100 mg/kg)	Percent Repression of Food Intake After 1.0 Hours ([1]; I.P. 100 mg/kg)	Percent Repression of Food Intake After 3.0 Hours ([1]; I.P. 100 mg/kg)	Percent Repression of Food Intake After 6.0 Hours ([1]; I.P. 100 mg/kg)	further results
CCK26-33: prior art octapeptide, carboxyl-terminus fragment of cholecystokinin [reference compound]	–	–	–	–	–	–	–	–	–	Percent Repression of Food Intake After 0.5 Hours ([1]; I.P. 5 mg/kg): 50%; Percent Repression of Food Intake After 1.0 Hours ([1]; I.P. 5 mg/kg): 40%; Percent Repression of Food Intake After 3.0 Hours ([1]; I.P. 5 mg/kg): 3%; Percent Repression of Food Intake After 6.0 Hours ([1]; I.P. 5 mg/kg): 12%
CC(Cc1c[nH]c2ccccc12)(NC(=O)OC(C)(C)C(Cl)(Cl)Cl)C(=O)NCCc1ccccn1 (racemic) [Example 19, (±)-[1-(1H-Indol-3-ylmethyl)-1-methyl-2-oxo-2-[[2-(2-pyridinyl)ethyl]amino]ethyl]carbamic acid, 2,2,2-trichloro-1,1-dimethylethyl ester]	–	35%	49%	60%	55%	–	–	–	–	Percent Repression of Food Intake After 0.5 Hours ([1]; P.O. 300 mg/kg): 78%; Percent Repression of Food Intake After 1.0 Hours ([1]; P.O. 300 mg/kg): 68%; Percent Repression of Food Intake After 3.0 Hours ([1]; P.O. 300 mg/kg): 52%; Percent Repression of Food Intake After 6.0 Hours ([1]; P.O. 300 mg/kg): 52%
